Holding throughout (assay): relative viability (nuclei count vs DMSO), 5 days (fraction); higher = more cells survive
Compound in the assay “BMX-IN-1 + Dasatinib”: C=CC(=O)Nc1cc(-n2c(=O)ccc3cnc4ccc(-c5ccc(NS(C)(=O)=O)cc5)cc4c32)ccc1C [BMX-IN-1] + Cc1nc(Nc2ncc(C(=O)Nc3c(C)cccc3Cl)s2)cc(N2CCN(CCO)CC2)n1 [Dasatinib] (partner 0.075 µM)
In outline:
(§1)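 Nuclei were stained with Hoechst during a one-step fixation (final 0.05% Triton X-100, 1% formaldehyde, 1 ug/ml Hoechst) carried out 5 days after dosing, then counted on 4× images. The cells, lung cancer lines in 1536-well plates, had been dosed by pin tool the day after seeding with one drug alone or a fixed anchor-drug dose plus five library-drug doses (not always all listed) in √10 steps. Relative viability is the nuclei count in treated wells divided by that in vehicle wells, and each value is the median of duplicate plates.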

Compound in the assay “BMX-IN-1 + Phenformin”: C=CC(=O)Nc1cc(-n2c(=O)ccc3cnc4ccc(-c5ccc(NS(C)(=O)=O)cc5)cc4c32)ccc1C [BMX-IN-1] + N=C(N)NC(=N)NCCc1ccccc1 [Phenformin] (partner 250 µM)
In short, it runs like this: as §1

Compound in the assay “BMX-IN-1 + Decitabine”: C=CC(=O)Nc1cc(-n2c(=O)ccc3cnc4ccc(-c5ccc(NS(C)(=O)=O)cc5)cc4c32)ccc1C [BMX-IN-1] + Nc1ncn([C@H]2C[C@H](O)[C@@H](CO)O2)c(=O)n1 [Decitabine] (partner 2 µM)
In outline:
as §1

Compound in the assay “PAC-1 + Bortezomib”: C=CCc1cccc(/C=N/NC(=O)CN2CCN(Cc3ccccc3)CC2)c1O [PAC-1] + CC(C)C[C@H](NC(=O)[C@H](Cc1ccccc1)NC(=O)c1cnccn1)B(O)O [Bortezomib] (partner 0.002 µM)
In short, it runs like this: as §1

Compound in the assay “PAC-1 + Decitabine”: C=CCc1cccc(/C=N/NC(=O)CN2CCN(Cc3ccccc3)CC2)c1O [PAC-1] + Nc1ncn([C@H]2C[C@H](O)[C@@H](CO)O2)c(=O)n1 [Decitabine] (partner 2 µM)
In outline:
as §1

As to NCI-H1651, the relative viability came to 0.213 in the assay with BMX-IN-1 + Dasatinib (first compound 0.02 µM); 0.515 with BMX-IN-1 + Dasatinib (first compound 0.2 µM); 0.435 in the assay with BMX-IN-1 + Dasatinib (first compound 0.6325 µM); 0.406 with BMX-IN-1 + Dasatinib (first compound 2 µM); 0.292 with BMX-IN-1 + Phenformin (first compound 0.02 µM); 0.451 with BMX-IN-1 + Phenformin (first compound 0.2 µM). In addition, the relative viability came out at 0.394 with BMX-IN-1 + Phenformin (first compound 0.6325 µM); 0.363 with BMX-IN-1 + Phenformin (first compound 2 µM); 0.5 with BMX-IN-1 + Decitabine (first compound 0.02 µM); 0.667 with BMX-IN-1 + Decitabine (first compound 0.2 µM); 0.722 with BMX-IN-1 + Decitabine (first compound 0.6325 µM); 0.593 with BMX-IN-1 + Decitabine (first compound 2 µM). Also, the relative viability came out at 0.905 with PAC-1 + Bortezomib (first compound 0.02 µM); 0.929 with PAC-1 + Bortezomib (first compound 0.06325 µM); 0.88 with PAC-1 + Bortezomib (first compound 0.2 µM); 0.968 with PAC-1 + Bortezomib (first compound 2 µM); 0.649 in the assay with PAC-1 + Decitabine (first compound 0.02 µM); 0.552 with PAC-1 + Decitabine (first compound 0.06325 µM). In addition, the relative viability in the assay with PAC-1 + Decitabine (first compound 0.2 µM) worked out at 0.39; in the assay with PAC-1 + Decitabine (first compound 2 µM), 0.675.
As for NCI-H1666, the relative viability with BMX-IN-1 + Dasatinib (first compound 0.02 µM) worked out at 0.905; with BMX-IN-1 + Dasatinib (first compound 0.2 µM), 0.839; with BMX-IN-1 + Dasatinib (first compound 0.6325 µM) it was 0.94; in the assay with BMX-IN-1 + Dasatinib (first compound 2 µM), 0.845; with BMX-IN-1 + Phenformin (first compound 0.02 µM), 0.572; with BMX-IN-1 + Phenformin (first compound 0.2 µM) it was 0.581. In addition, the relative viability with BMX-IN-1 + Phenformin (first compound 0.6325 µM) was 0.597; with BMX-IN-1 + Phenformin (first compound 2 µM) it was 0.607; in the assay with BMX-IN-1 + Decitabine (first compound 0.02 µM) it was 0.673; with BMX-IN-1 + Decitabine (first compound 0.2 µM) it was 0.746; with BMX-IN-1 + Decitabine (first compound 0.6325 µM) it was 0.839; with BMX-IN-1 + Decitabine (first compound 2 µM) it was 0.716. The relative viability came to 0.849 with PAC-1 + Bortezomib (first compound 0.02 µM); 0.809 with PAC-1 + Bortezomib (first compound 0.06325 µM); 0.828 with PAC-1 + Bortezomib (first compound 0.2 µM); 0.912 in the assay with PAC-1 + Bortezomib (first compound 2 µM); 0.721 with PAC-1 + Decitabine (first compound 0.02 µM); 0.763 with PAC-1 + Decitabine (first compound 0.06325 µM). Further, the relative viability in the assay with PAC-1 + Decitabine (first compound 0.2 µM) and with PAC-1 + Decitabine (first compound 2 µM) was 0.713 in each case.
For NCI-H1734, the relative viability in the assay with BMX-IN-1 + Dasatinib (first compound 0.02 µM) was 0.463; in the assay with BMX-IN-1 + Dasatinib (first compound 0.2 µM) it was 0.504; with BMX-IN-1 + Dasatinib (first compound 0.6325 µM), 0.476; with BMX-IN-1 + Dasatinib (first compound 2 µM) it was 0.467; with BMX-IN-1 + Phenformin (first compound 0.02 µM) it was 0.341; in the assay with BMX-IN-1 + Phenformin (first compound 0.2 µM), 0.431. For the same cell line, the relative viability turned out to be 0.461 with BMX-IN-1 + Phenformin (first compound 0.6325 µM); 0.415 with BMX-IN-1 + Phenformin (first compound 2 µM); 0.534 with BMX-IN-1 + Decitabine (first compound 0.02 µM); 0.568 with BMX-IN-1 + Decitabine (first compound 0.2 µM); 0.522 in the assay with BMX-IN-1 + Decitabine (first compound 0.6325 µM); 0.831 in the assay with BMX-IN-1 + Decitabine (first compound 2 µM). Besides, the relative viability with PAC-1 + Bortezomib (first compound 0.02 µM) is 0.904; in the assay with PAC-1 + Bortezomib (first compound 0.06325 µM), 0.995; with PAC-1 + Bortezomib (first compound 0.2 µM), 0.877; with PAC-1 + Bortezomib (first compound 2 µM), 0.955; with PAC-1 + Decitabine (first compound 0.02 µM), 0.52; in the assay with PAC-1 + Decitabine (first compound 0.06325 µM) it was 0.554. In addition, the relative viability with PAC-1 + Decitabine (first compound 0.2 µM) is 0.37; in the assay with PAC-1 + Decitabine (first compound 2 µM), 0.462.
Turning to NCI-H1755, the relative viability is 0.389 with BMX-IN-1 + Dasatinib (first compound 0.02 µM); 0.452 in the assay with BMX-IN-1 + Dasatinib (first compound 0.2 µM); 0.438 in the assay with BMX-IN-1 + Dasatinib (first compound 0.6325 µM); 0.48 in the assay with BMX-IN-1 + Dasatinib (first compound 2 µM); 0.544 in the assay with BMX-IN-1 + Phenformin (first compound 0.02 µM); 0.673 in the assay with BMX-IN-1 + Phenformin (first compound 0.2 µM). In addition, the relative viability in the assay with BMX-IN-1 + Phenformin (first compound 0.6325 µM) came to 0.711; with BMX-IN-1 + Phenformin (first compound 2 µM) it was 0.612; with BMX-IN-1 + Decitabine (first compound 0.02 µM), 0.644; with BMX-IN-1 + Decitabine (first compound 0.2 µM), 0.683; in the assay with BMX-IN-1 + Decitabine (first compound 0.6325 µM), 0.795; in the assay with BMX-IN-1 + Decitabine (first compound 2 µM), 0.758. The relative viability was found to be 0.99 with PAC-1 + Bortezomib (first compound 0.02 µM); 0.961 with PAC-1 + Bortezomib (first compound 0.06325 µM); 0.938 with PAC-1 + Bortezomib (first compound 0.2 µM); 0.907 in the assay with PAC-1 + Bortezomib (first compound 2 µM); 0.764 with PAC-1 + Decitabine (first compound 0.02 µM); 0.712 with PAC-1 + Decitabine (first compound 0.06325 µM). The relative viability is 0.675 with PAC-1 + Decitabine (first compound 0.2 µM) and 0.732 with PAC-1 + Decitabine (first compound 2 µM).

The record behind these values is the supplement of paper PMC10307832.
